Paper PMC11058275, “Targeted potent antimicrobial and antitumor oxygen-heterocyclic-based pyran analogues: synthesis and computational studies” (Scientific Reports, 2024)
Like-named read-outs stand apart in the source and are kept apart here.

Legend:
[1] = test system: Klebsiella pneumonia (ATCC 13883); experiment: Agar diffusion antibacterial screening (inhibition zone); assay type: cell-based; settings: Klebsiella pneumoniae, ATCC13883, K. pneumonia, 1 mg/mL, Mueller–Hinton agar, read-out: Diameter of inhibition zone
Description: (§1) The antibacterial activity of β-enamionitriles (4a-q) was screened using Mueller–Hinton agar medium for bacteria in an agar diffusion methodology. Ciprofloxacin (1 mg/mL) was the reference antibiotic drug used in the analysis of collections that included four gram-positive species of multi drug resistant pathogenic bacteria: Staphylococcus aureus (MRSA) (ATCC 6539), Staphylococcus aureus (ATCC 6538), Bacillus cereus (ATCC 10987), Bacillus subtilis (ATCC 6633), and two gram-negative species of multi drug resistant pathogenic bacteria Klebsiella pneumonia (ATCC 13883) and Escherichia coli (ATCC 8739). […] Using a 1 mg/mL concentration of compounds (4a-q), the minimum zone of inhibition (IZ, the area around the antimicrobial agent where bacterial growth is prevented) was established in mm ± standard deviation beyond the well diameter (6 mm). […] The synthetic compound's inhibitory effects on evaluation against these organisms are depicted in Fig. 9 and Table 1.
(§2) Compound 4a-q was screened for its in vitro antimicrobial activities against pathogenic bacteria species using the standard antibiotics Ampicillin, Gentamycin and Ketoconazole as reference drugs as reported previously. The minimum inhibitory concentration (MIC) was determined as previously reported. The antimicrobial activities were performed at the Regional Centre for Mycology & Biotechnology (RCMP), Al-Azhar University.

[2] = test system: Staphylococcus aureus (MRSA) (ATCC 6539); experiment: as above; assay type: cell-based; settings: read-out: Diameter of inhibition zone
Description: as §1, §2

[3] = test system: Escherichia coli (ATCC 8739); experiment: as above; assay type: cell-based; settings: ATCC8739, E. coli, 1 mg/mL, Mueller–Hinton agar, read-out: Diameter of inhibition zone
Description: as §1, §2

[4] = test system: Bacillus subtilis (ATCC 6633); experiment: as above; assay type: cell-based; settings: ATCC6633, B. subtilis, 1 mg/mL, Mueller–Hinton agar, read-out: Diameter of inhibition zone
Description: as §1, §2

[5] = test system: Staphylococcus aureus (ATCC 6538); experiment: as above; assay type: cell-based; settings: ATCC6538, S. aureus, 1 mg/mL, Mueller–Hinton agar, read-out: Diameter of inhibition zone
Description: as §1, §2

[6] = test system: Bacillus cereus (ATCC 10987); experiment: as above; assay type: cell-based; settings: ATCC10987, B. cereus, 1 mg/mL, Mueller–Hinton agar, read-out: Diameter of inhibition zone
Description: as §1, §2

[7] = test system: HCT-116 (human colon cancer); experiment: MTT cytotoxicity assay; assay type: cell-based
Description: (§3) The antiproliferative activity of the newly synthesized 1H-benzo[f]chromenes derivatives (4a-q) was examined in three human cancer cell lines: MCF-7 (breast cancer), HCT-116 (human colon cancer), and HepG-2 (hepatocellular carcinoma), as well as the two normal cell lines, HFL-1 (human foetal lung) and WI-38 (human diploid fibroblasts), using the 3-(4,5-dimethylthiazol-2-yl)-2,5-diphenyl tetrazolium bromide (MTT) colorimetric assay[56].
(§4) Compounds 4a-q was initially evaluated for in vitro antitumor activity against three different human cell lines: MCF-7, HCT-116 and HepG-2. In-vitro cytotoxicity evaluation was performed at the Regional Center for Mycology & Biotechnology (RCMP), Al-Azhar University under different concentrations (50, 25, 12.5, 6.25, 3.125, 1.56 and 0 µg/mL); vinblastine and doxorubicin are used as reference cytotoxic compounds.

[8] = test system: HepG-2 (hepatocellular carcinoma); experiment: MTT cytotoxicity assay; assay type: cell-based; settings: Homo sapiens
Description: as §3, §4

MCF-7 (breast cancer) = experiment: MTT cytotoxicity assay; settings: Homo sapiens
Description: as §3, §4

[9] = test system: HFL-1 (human foetal lung); experiment: MTT cytotoxicity assay, normal cells; assay type: cell-based; settings: read-out: IC50 Normotoxicity HFL-1
Description: as §3, §4

[10] = test system: WI-38 (human diploid fibroblasts); experiment: MTT cytotoxicity assay, normal cells; assay type: cell-based; settings: read-out: IC50 Normotoxicity WI-38
Description: as §3, §4

[11] = MTT, 24-h incubation, mean ± standard error, read-out: IC50 Cancerotoxicity HCT-116
[12] = HepG2, MTT, 24-h incubation, mean ± standard error, read-out: IC50 Cancerotoxicity HepG-2
[13] = MCF7, 24 h, read-out: IC50 Cancerotoxicity MCF-7
[14] = HFL1, HFL-1 normal cells, MTT, 24-h incubation, mean ± standard error
[15] = WI-38 normal cells, MTT, 24-h incubation, mean ± standard error

SMILES	zone of inhibition at 1000 µg/mL [1]	zone of inhibition at 1000 µg/mL [2]	zone of inhibition at 1000 µg/mL [3]	zone of inhibition at 1000 µg/mL [4]	zone of inhibition at 1000 µg/mL [5]	zone of inhibition at 1000 µg/mL [6]	IC50 [7, 11]	IC50 [8, 12]	melting point	IC50 (MCF-7 (breast cancer); [13])	IC50 ([7]; given in µg/mL, read-out: IC50 HCT-116)	IC50 ([8]; HepG2, given in µg/mL, read-out: IC50 HepG-2)	IC50 [9, 14]	IC50 (MCF-7 (breast cancer); MCF7, read-out: IC50 MCF-7)	IC50 [10, 15]	IC50 ([9]; HFL1, 24 h)	IC50 ([10]; WI-38, 24 h)
O=C(O)c1cn(C2CC2)c2cc(N3CCNCC3)c(F)cc2c1=O [Ciprofloxacin, reference compound]	0 mm	0 mm	25 mm	0 mm	0 mm	22 mm	–	–	–	–	–	–	–	–	–	–	–
COc1ccc2c3c(ccc2c1)OC(N)=C(C#N)C3c1cc(Cl)cc(Cl)c1Cl (stereo not shown) [Compound 4q, 3-amino-1-(2,3,5-trichlorophenyl)-8-methoxy-1H-benzo[f]chromene-2-carbonitrile]	13 mm	13 mm	12 mm	10 mm	10 mm	13 mm	107 ± 1.6 µM	76.5 ± 0.9 µM	259 to 260 °C	110.4 ± 0.1 µM	–	–	–	–	–	–	–
COc1ccc2c3c(ccc2c1)OC(N)=C(C#N)C3c1ccc(Cl)c(Cl)c1 (stereo not shown) [Compound 4m, 3-Amino-1-(3,4-dichlorophenyl)-8-methoxy-1H-benzo[f]chromene-2-carbonitrile]	13 mm	14 mm	10 mm	0 mm	0 mm	13 mm	2.3 ± 0.97 µM	1.8 ± 0.06 µM	241 to 242 °C	1.3 ± 0.21 µM	0.9 ± 0.97 µg/mL	0.7 ± 0.06 µg/mL	181 ± 0.1 µM	0.5 ± 0.21 µg/mL	175.5 ± 0.2 µM	–	–
COc1ccc2c3c(ccc2c1)OC(N)=C(C#N)C3c1cccc(Cl)c1 (stereo not shown) [Compound 4c, 3-Amino-1-(3-chlorophenyl)-8-methoxy-1H-benzo[f]chromene-2-carbonitrile]	13 mm	15 mm	12 mm	0 mm	0 mm	17 mm	5.5 ± 0.35 µM	3.3 ± 0.5 µM	216 to 217 °C	3.6 ± 0.14 µM	–	–	187.6 ± 0.2 µM	–	214.1 ± 0.1 µM	–	–
COc1ccc2c3c(ccc2c1)OC(N)=C(C#N)C3c1c(F)cccc1F (stereo not shown) [Compound 4h, 3-Amino-1-(2,6-difluorophenyl)-8-methoxy-1H-benzo[f]chromene-2-carbonitrile]	10 mm	13 mm	0 mm	0 mm	9 mm	9 mm	33.8 ± 0.12 µM	48.1 ± 0.2 µM	295 to 296 °C	60.2 ± 0.3 µM	–	–	–	–	–	–	–
C#Cc1cccc(Nc2ncnc3cc(OCCOC)c(OCCOC)cc23)c1 [Erlotinib, N-(3-ethynylphenyl)-6,7-bis(2-methoxyethoxy)-4-quinazolinamine, reference compound]	–	–	–	–	–	–	–	–	–	–	–	–	–	–	–	14 ± 1.2 µM	28.5 ± 0.2 µM
COc1ccc2c3c(ccc2c1)OC(N)=C(C#N)C3c1cc(Cl)ccc1Cl (stereo not shown) [Compound 4k, 3-Amino-1-(2,5-dichlorophenyl)-8-methoxy-1H-benzo[f]chromene-2-carbonitrile]	15 mm	12 mm	13 mm	0 mm	0 mm	0 mm	2.5 ± 0.23 µM	1.8 ± 0.03 µM	270 to 271 °C	6.6 ± 0.4 µM	–	–	–	–	–	–	–
COc1ccc2c3c(ccc2c1)OC(N)=C(C#N)C3c1ccc(I)cc1 (stereo not shown) [Compound 4f, 3-Amino-1-(4-iodophenyl)-8-methoxy-1H-benzo[f]chromene-2-carbonitrile]	9 mm	12 mm	0 mm	8 mm	0 mm	15 mm	27.8 ± 0.3 µM	39.2 ± 0.2 µM	227 to 228 °C	48.5 ± 0.1 µM	–	–	–	–	–	–	–
COc1ccc2c3c(ccc2c1)OC(N)=C(C#N)C3c1c(Cl)cccc1Cl (stereo not shown) [Compound 4l]	14 mm	13 mm	0 mm	0 mm	0 mm	8 mm	21.3 ± 0.01 µM	2.3 ± 0.02 µM	313 to 314 °C	12.1 ± 0.06 µM	–	–	–	–	–	–	–
COc1ccc2c3c(ccc2c1)OC(N)=C(C#N)C3c1cc(OC)c(OC)c(OC)c1 (stereo not shown) [Compound 4p, 3-amino-1-(3,4,5-trimethoxyphenyl)-8-methoxy-1H-benzo[f]chromene-2-carbonitrile]	12 mm	13 mm	11 mm	0 mm	11 mm	15 mm	91.4 ± 0.01 µM	106.5 ± 0.1 µM	258 to 259 °C	114.4 ± 0.03 µM	–	–	–	–	–	–	–
N#CC(C#N)=Cc1ccc(Cl)cc1	–	–	–	–	–	–	–	–	162 to 163 °C	–	–	–	–	–	–	–	–
COc1ccc2c3c(ccc2c1)OC(N)=C(C#N)C3c1ccc(OC)c(OC)c1OC (stereo not shown) [Compound 4o, 3-amino-1-(2,3,4-trimethoxyphenyl)-8-methoxy-1H-benzo[f]chromene-2-carbonitrile]	11 mm	12 mm	12 mm	0 mm	10 mm	14 mm	35.9 ± 0.02 µM	17.6 ± 0.05 µM	240 to 241 °C	55.3 ± 0.01 µM	–	–	–	–	–	–	–
